# Source: patent US20260125351A1, “COMPOUND FOR INDUCING EXPRESSION OF ANTI-AGING GENE KLOTHO AND USE THEREOF” (KLOTHO SCIENCES, priority 2019, published 2026)
# Legend:
# [1] = test system: promoter of the human klotho gene; assay: Luciferase expression experiment, reporter gene pHKP-luc (promoter up to -2.1 kb upstream) in RPTECs; assay type: cell-based
# Description: (§1) In order to evaluate whether the klotho gene was expressed by the evaluation of luciferase activity, human renal proximal tubule epithelial cells (RPTECs) (ATCC CRL-4031), which are epithelial cells of the proximal tubule of the human kidneys, were purchased from Lonza, USA and used.
# (§2) For culturing, a Renal Epithelial Growth Medium (REGM™) Bullet kit, also manufactured by the same Lonza company, was used, and the cells were cultured under conditions of 37° C. and 5% CO2. As a plasmid for luciferase expression, a plasmid in which the promoter site of a human KL (klotho) gene was disposed to regulate the expression of a firefly luciferase gene was used.
# The plasmid was incorporated into cells using an X-treme GENE transfection reagent from Roche. The activity of luciferase expressed in cells was measured using a Dual-Luciferase reporter assay system manufactured by Promega. After the cultured cells were treated with each compound at an indicated concentration for 24 hours, the activity of luciferase was measured. It is indirectly shown that the expression of the klotho gene may be increased when the activity of luciferase is high.
# The results of confirming the expression of a reporter gene by treating RPTECs, which are epithelial cells of the proximal tubule of the human kidneys, with Examples 1 to 6 at concentrations of 0.5, 1 and 5 μM and Comparative Example 1 at a concentration of 5 μM and using a reporter gene (pHKP-luc) including a promoter included up to −2.1 kb upstream of the human klotho gene are illustrated in FIGS. 2 and 3.
# klotho (KL) gene [2] = assay: Quantitative evaluation of klotho (KL) gene expression level using real-time PCR in RPTEC cells; assay type: cell-based, human; details: RPTEC cells treated for 6 hours; real-time PCR (FIG. 4)
# Description: For RNA extraction from RPTEC cells, which are epithelial cells of the proximal tubule of the human kidneys, treated with the compounds of Comparative Example 1 and Examples 1 and 2 for 6 hours, an RNeasy kit from Qiagen Inc. was used. The results of preparing cDNA from extracted RNA using a Superscript II kit from Thermo Fisher Scientific. Inc. and performing the quantitative evaluation using Taqman Gene Expression assays from Applied Biosystems as a klotho (KL) gene-specific kit are illustrated in FIG. 4.
# [3] = test system: Human renal proximal tubule epithelial cells (RPTECs); assay: Inhibition of cellular senescence, senescence β-galactosidase staining; assay type: cell-based
# Description: Human renal proximal tubule epithelial cells (RPTECs), which are renal tubular epithelial cells, were purchased from Lonza, and as a culture medium, a REGM kit supplied by the same company was also used. Cells were cultured in a 37° C. incubator under 5% CO2 conditions. When the cells reached 80% saturation, the cells were treated with trypsin, transferred to a new culture dish, and subcultured. A compound was attached to the medium such that the final concentration was 2.5 μM, and a constant concentration was maintained by adding the compound thereto during each passage. […] As for the cells inducing senescence, cells subcultured 17 times (#17) in total were used.
# “Senescence β-galactosidase staining kit” from Cell Signaling Technology, Inc. was used to confirm the degree of senescence of cells. On the day of the experiment, a staining solution was added to the cells, and the stained cells were confirmed 8 hours later. The number of stained cells was confirmed and expressed as a ratio among the total number of cells observed under a 200-fold microscope, and the number of stained cells at three different locations per sample was counted and averaged. As the senescence of the cells progresses, the expression of the enzyme β-galactosidase increases, and therefore the stained cells may be determined as more senescent cells than the non-stained cells.
# klotho (KL) gene [4] = assay: Quantitative evaluation of klotho (KL) gene expression level using general PCR in RPTEC cells; assay type: cell-based, human; design: dose or concentration left out as unconfirmed; details: general PCR (FIG. 5)
# Description: After RPTEC cells, which are epithelial cells of the proximal tubule of the human kidneys, were each treated with the compounds of Examples 7 to 10 at […] for 6 hours. RNA was extracted from the cells, and cDNA was prepared from the extracted RNA using a Superscript II kit from Thermo Fisher Scientific, Inc., and then general PCR was performed.
# Information on the primers used in the experiment is as follows.
# The DNA amplified by PCR was confirmed by staining with ethidium bromide after electrophoresis on an agarose gel, and the amounts of DNA in the band were quantitatively compared using the SPEedyQuant program, and are illustrated in FIG. 5.
# [5] = test system: spontaneous hypertensive rat (SHR); assay: Effect of reducing hypertension in spontaneous hypertensive rat; assay type: in vivo; details: SHR rats
# Description: A 6-week-old rat male WKY/lzm was used as a normal control, and a 6-week-old rat male SHR/lzm was used as an experimental group in which hypertension was induced. All animals were purchased from the Central Laboratory Animal, and experiments were conducted at the rearing facility in a re-entry area within the Experimental Animal Center of the Osong Medical Innovation Foundation. The […] were quarantined and acclimatized for 7 days after receipt, and the health of the animals was observed during this period.
# Group separation was performed on the end day of instrument acclimatization (group separation day) among animals having no general symptoms. […]
# • (1) A test material and a positive control material were dissolved in an excipient in a liquid amount of 20 mIJkg according to the corresponding concentration. • (2) After quarantine and acclimatization, the excipient, the test material, and the positive control material were administered after group separation based on the blood pressure and body weight of animals. • (3) All administration groups were administered orally 7 times/week for 8 weeks using a 3 mL syringe with a liquid amount of 20 mL/kg based on the body weight measured once a week. […]
# On days 36 and 64 after administration of the drug, blood pressure was measured by placing the animals in a blood pressure measuring frame and allowing the tails to come out. […]
# [6] = test system: unilateral ureter obstruction model; assay: Unilateral ureter obstruction (UUO) model; assay type: in vivo; details: UUO mice, 20 mg/kg/day into the abdominal cavity
# Description: In a unilateral ureter obstruction model, 5-week-old male […] mice were used. After the right ureter was tied with a thread to create a unilateral ureter obstruction model, the KS1 compound (20 mg/kg/day) was injected into the abdominal cavity daily starting 24 hours later. After that, samples were collected by sacrificing the mice on days 7 and 14 and tested (FIG. 8A).
# [7] = test system: human kidney-2 (HK2) cells; assay: Toxicity test, EZ-Cytox kit; assay type: cell-based; details: 12.5 μM or 25 μM, 24 hours
# Description: Cultured human kidney-2 (HK2) cells were treated with Comparative Example 1, Example 2 and Examples 9 to 10 at a concentration of 25 μM or 12.5 μM, and after 24 hours, cytotoxicity was measured using an EZ-Cytox kit.
# klotho protein = assay: Klotho protein expression level in cisplatin-treated HK-2 cells; assay type: cell-based, human; details: cisplatin (20 μM) disease model, KS1 3 μM, after 24 hours (FIG. 7B)
# Description: As in the protocol in FIG. 7A, a disease model was made by treating HK-2 cells (human renal cells) with cisplatin (20 μM), and then treated with a KS1 compound (Example 10) (3 μM). After 24 hours, the expression degree of the klotho protein was confirmed by obtaining the cells.
# [8] = test system: promoter of the human klotho gene; assay: Luciferase expression experiment, klotho promoter reporter (1.7 kbp or 240 bp) in RPTEC cells; assay type: cell-based; details: 5 μM, 24 hours, reporter with klotho promoter to 1.7 kbp or 240 bp, among Comparative Examples 1 to 4 (FIG. 1)
# Description: as §1, §2
# The plasmid was incorporated into cells using an X-treme GENE transfection reagent from Roche. The activity of luciferase expressed in cells was measured using a Dual-Luciferase reporter assay system manufactured by Promega. After the cultured cells were treated with each compound at an indicated concentration for 24 hours, the activity of luciferase was measured. It is indirectly shown that the expression of the klotho gene may be increased when the activity of luciferase is high. […]
# [9] = RPTECs, Examples at 0.5, 1 and 5 μM, Comparative Example 1 at 5 μM, pHKP-luc (FIG. 2)
compound,measurement,setting,value
Cc1ccc2oc(Nc3ccc(Cl)c(Cl)c3)nc2c1 [Example 2],expression of the reporter gene,"[1]; RPTEC cells, 5 μM, pHKP-luc (FIG. 3)",at a level similar to that of Comparative Example 1
same,expression of the reporter gene,[1]; [9],at a level similar to that of Comparative Example 1
same,mRNA expression level of the klotho (KL) gene,klotho (KL) gene [2],at a level similar to that of Comparative Example 1
"Fc1ccc(Nc2nc3ccccc3o2)cc1F [Example 10, N-(3,4-difluorophenyl)benzo[d]oxazol-2-amine]",cells stained (senescence β-galactosidase),"[3]; RPTECs subcultured 17 times, 2.5 μM in medium, DMSO about 90% (FIG. 15)",about 70%
same,decrease in degree of senescence compared to DMSO,"[3]; RPTECs, 17 passages, 2.5 μM",about 20%
same,expression level of the klotho (KL) gene relative to Comparative Example 1,klotho (KL) gene [4],about 10 times
same,blood pressure reduction effect on co-administration with losartan,"[5]; KS1 co-administered with losartan, versus each drug administered independently (FIG. 14)",better blood pressure reduction effect
same,systolic pressure,"[5]; oral 20 mg/kg/day for 8 weeks, measured days 36 and 64 (FIG. 14)",remarkably reduced
same,renal hypertrophy (kidney size),[6]; days 7 and 14 (FIG. 8B),no difference in size
same,"nuclear and cytoplasmic changes, H&E staining",[6]; one-week and two-week samples (FIG. 9),large reduction in tissue destruction
same,klotho protein expression,[6]; one-week sample (FIG. 12),increased
same,"fibrosis progression, Sirius Red staining",[6]; versus UUO model not treated with KS1 (FIG. 10),fibrosis occurred less
same,"degree of apoptosis, TUNEL staining",[6]; versus UUO model not treated with KS1 (FIG. 11),remarkably reduced
same,expression level of MMP-9 protein (inflammation marker),[6]; week 1 and week 2 (FIG. 13),remarkably reduced
same,improvement of toxicity compared to Comparative Example 1,[7],≥ 20%
same,cytotoxicity,[7]; EZ-Cytox (FIG. 6),least toxicity
same,expression of the klotho protein,klotho protein,increased
"N.N.[Cl][Pt][Cl] [cisplatin, reference compound]",expression of the klotho protein,klotho protein,decreased
"O=C(Nc1nc2ccccc2o1)c1ccc([N+](=O)[O-])cc1Cl [Example 1, N-(benzo[d]oxazol-2-yl)-2-chloro-4-nitrobenzamide]",expression of the reporter gene,[1]; [9],at a level similar to that of Comparative Example 1
"O=C(Nc1ccccc1Cl)c1c[nH]c2ccccc12 [Comparative Example 1, N-(2-chlorophenyl)-1H-indole-3-carboxamide]",luciferase activity,[8],highest
